Measured values taken from ChEMBL document CHEMBL3885881, “DrugMatrix”.

Species: Rattus norvegicus
Type: toxicity, organism-based, Sprague-Dawley
Conditions: in vivo, po, route oral GAVAGE, […]; for ABSOLUTE EOSINOPHIL / ABSOLUTE LYMPHOCYTE / ABSOLUTE MONOCYTE / ABSOLUTE SEGMENTED NEUTROPHIL / BASOPHIL / EOSINOPHIL / ERYTHROCYTE COUNT / HEMATOCRIT / HEMOGLOBIN / LEUKOCYTE COUNT / LYMPHOCYTE / MEAN CORPUSCULAR HEMOGLOBIN / MEAN CORPUSCULAR HEMOGLOBIN CONCENTRATION / MEAN CORPUSCULAR VOLUME / MONOCYTE / NEUTROPHIL / NUCLEATED RED BLOOD CELLS / PLATELET COUNT: tissue Blood; for ALANINE AMINOTRANSFERASE / ALBUMIN / ALKALINE PHOSPHATASE / ASPARTATE AMINOTRANSFERASE / BLOOD UREA NITROGEN / CARBON DIOXIDE / CHLORIDE / CHOLESTEROL / CREATINE PHOSPHOKINASE / CREATININE / GLUCOSE / LACTATE DEHYDROGENASE / LIPASE / PHOSPHORUS / POTASSIUM / SODIUM / TOTAL BILIRUBIN / TOTAL PROTEIN / URIC ACID: tissue Plasma
[1] = 400 mg/kg, 24 h, dose level Low, time 1 day
[2] = 1175 mg/kg, 6 h, dose level High, time 0.25 day
[3] = 1175 mg/kg, 24 h, dose level High, time 1 day

Description: DrugMatrix - Regimen: Single

## ClC(Cl)(Cl)Cl [CARBON TETRACHLORIDE]
[1]
  ABSOLUTE EOSINOPHIL: 0 CELLS/uL
  ABSOLUTE LYMPHOCYTE: 6780.67 CELLS/uL
  ABSOLUTE MONOCYTE: 96.83 CELLS/uL
  ABSOLUTE SEGMENTED NEUTROPHIL: 789.17 CELLS/uL
  BASOPHIL: 0%
  EOSINOPHIL: 0%
  ERYTHROCYTE COUNT: 5.7 x10E6/uL
  HEMATOCRIT: 35.63%
  HEMOGLOBIN: 14.05 G/DL
  LEUKOCYTE COUNT: 7.67 x10E3/uL
  LYMPHOCYTE: 88%
  MEAN CORPUSCULAR HEMOGLOBIN: 24.7 pg
  MEAN CORPUSCULAR HEMOGLOBIN CONCENTRATION: 39.43 G/DL
  MEAN CORPUSCULAR VOLUME: 62.67 fL
  MONOCYTE: 1.17%
  NEUTROPHIL: 10.83%
  NUCLEATED RED BLOOD CELLS: 0 /100WBC
  PLATELET COUNT: 966 x10E3/uL
  ALANINE AMINOTRANSFERASE: 129.17 u/L
  ALBUMIN: 4.17 G/DL
  ALKALINE PHOSPHATASE: 338.17 u/L
  ASPARTATE AMINOTRANSFERASE: 420.5 u/L
  BLOOD UREA NITROGEN: 16.33 mg/dL
  CARBON DIOXIDE: 34.33 mmol/L
  CHLORIDE: 98.5 MEQ/L
  CHOLESTEROL: 58 mg/dL
  CREATINE PHOSPHOKINASE: 252 u/L
  CREATININE: 0.29 mg/dL
  GLUCOSE: 127.33 mg/dL
  LACTATE DEHYDROGENASE: 240.17 u/L
  LIPASE: 9.83 u/L
  PHOSPHORUS: 9.37 mg/dL
  POTASSIUM: 5.7 MEQ/L
  SODIUM: 144.08 MEQ/L
  TOTAL BILIRUBIN: 0.22 mg/dL
  TOTAL PROTEIN: 6.3 G/DL
  URIC ACID: 0.53 mg/dL
[2]
  ABSOLUTE EOSINOPHIL: 83.17 CELLS/uL
  ABSOLUTE LYMPHOCYTE: 9204 CELLS/uL
  ABSOLUTE MONOCYTE: 323.67 CELLS/uL
  ABSOLUTE SEGMENTED NEUTROPHIL: 4922.5 CELLS/uL
  BASOPHIL: 0%
  EOSINOPHIL: 0.5%
  ERYTHROCYTE COUNT: 5.84 x10E6/uL
  HEMATOCRIT: 39.2%
  HEMOGLOBIN: 14.45 G/DL
  LEUKOCYTE COUNT: 14.53 x10E3/uL
  LYMPHOCYTE: 63.5%
  MEAN CORPUSCULAR HEMOGLOBIN: 24.75 pg
  MEAN CORPUSCULAR HEMOGLOBIN CONCENTRATION: 36.87 G/DL
  MEAN CORPUSCULAR VOLUME: 67.08 fL
  MONOCYTE: 2%
  NEUTROPHIL: 34%
  NUCLEATED RED BLOOD CELLS: 0.17 /100WBC
  PLATELET COUNT: 1289.67 x10E3/uL
  ALANINE AMINOTRANSFERASE: 157 u/L
  ALBUMIN: 4.5 G/DL
  ALKALINE PHOSPHATASE: 379.83 u/L
  ASPARTATE AMINOTRANSFERASE: 369 u/L
  BLOOD UREA NITROGEN: 14.83 mg/dL
  CARBON DIOXIDE: 21 mmol/L
  CHLORIDE: 97.83 MEQ/L
  CHOLESTEROL: 59.17 mg/dL
  CREATINE PHOSPHOKINASE: 433.5 u/L
  CREATININE: 0.14 mg/dL
  GLUCOSE: 128.33 mg/dL
  LACTATE DEHYDROGENASE: 1251.5 u/L
  LIPASE: 9.83 u/L
  PHOSPHORUS: 13.47 mg/dL
  POTASSIUM: 5.85 MEQ/L
  SODIUM: 140.9 MEQ/L
  TOTAL BILIRUBIN: 0.32 mg/dL
  TOTAL PROTEIN: 5.88 G/DL
  URIC ACID: 2.1 mg/dL
[3]
  ABSOLUTE EOSINOPHIL: 28.67 CELLS/uL
  ABSOLUTE LYMPHOCYTE: 8687.33 CELLS/uL
  ABSOLUTE MONOCYTE: 78.33 CELLS/uL
  ABSOLUTE SEGMENTED NEUTROPHIL: 1872.33 CELLS/uL
  BASOPHIL: 0%
  EOSINOPHIL: 0.33%
  ERYTHROCYTE COUNT: 5.91 x10E6/uL
  HEMATOCRIT: 37.1%
  HEMOGLOBIN: 14.7 G/DL
  LEUKOCYTE COUNT: 10.67 x10E3/uL
  LYMPHOCYTE: 81%
  MEAN CORPUSCULAR HEMOGLOBIN: 24.93 pg
  MEAN CORPUSCULAR HEMOGLOBIN CONCENTRATION: 39.62 G/DL
  MEAN CORPUSCULAR VOLUME: 62.85 fL
  MONOCYTE: 0.83%
  NEUTROPHIL: 17.83%
  NUCLEATED RED BLOOD CELLS: 0 /100WBC
  PLATELET COUNT: 912.17 x10E3/uL
  ALANINE AMINOTRANSFERASE: 544.67 u/L
  ALBUMIN: 4.05 G/DL
  ALKALINE PHOSPHATASE: 371.33 u/L
  ASPARTATE AMINOTRANSFERASE: 3091.33 u/L
  BLOOD UREA NITROGEN: 15.5 mg/dL
  CARBON DIOXIDE: 33.83 mmol/L
  CHLORIDE: 98.33 MEQ/L
  CHOLESTEROL: 55 mg/dL
  CREATINE PHOSPHOKINASE: 312.83 u/L
  CREATININE: 0.32 mg/dL
  GLUCOSE: 129.83 mg/dL
  LACTATE DEHYDROGENASE: 4392.83 u/L
  LIPASE: 10 u/L
  PHOSPHORUS: 9.72 mg/dL
  POTASSIUM: 5.12 MEQ/L
  SODIUM: 144.23 MEQ/L
  TOTAL BILIRUBIN: 0.27 mg/dL
  TOTAL PROTEIN: 6.05 G/DL
  URIC ACID: 0.52 mg/dL
